Structures can show the parent of a compound that is named as a salt.
Assays:
[1] = UV absorbance peak stability over time and temperature (UV visible spectroscopy); assay type: physicochemical; conditions: 1.4 and 14 ppm in 50/50 water and butylene glycol, time 0, week 1, 2, 4, 25°, 40°, 50° C., FIG. 1, FIG. 2
Method: Sinapoyl malate and CAPE were evaluated for UV absorption. 50 and 100 ppm of each compound was dissolved in water and a second sample set of isopropanol. Additional samples of sinapyl malate and CAPE were prepared by dissolving 0.025% and 0.05% of each ingredient in a 50/50 mixture of water and butylene glycol. Further dilution to obtain a concentration of 1.4 ppm and 14 ppm was performed.
The samples were tested for UV absorption across the UV range by measuring with an Agilent 8453 UV visible spectroscopy system at wavelengths ranging across 200 to 450 nm at time 0, week 1, week 2, and week 4. The term “NA” means that a previously observed absorbance peak was no longer visible. The term “peak” means the two highest absorbance peaks in the UV spectrum. The term “valley” means the two lowest point between the absorbance peaks. In the case where there is only one peak or valley it means that the other, previously observed peak or valley was deteriorated at the time and temperature of the stability study. In the case where all peaks and valleys are indicated “NA” it means that the sample deteriorated entirely and no longer absorbed in the UV range at all.

COc1cc(/C=C/C(=O)OC(CC(=O)O)C(=O)O)cc(OC)c1O (stereo not drawn) (as salt: malate) [Sinapoyl malate]
melting point: 55 to 65 °C

O=C(/C=C/c1ccc(O)c(O)c1)OCCc1ccccc1 [CAPE, reference compound]
stability of UV absorbance peaks over time and temperature [1]: much less stability over time and temperature

COc1cc(/C=C/C(=O)OC(CC(=O)O)C(=O)O)cc(OC)c1O (stereo not drawn) [Sinapoyl malate]
stability of UV absorbance peaks over time and temperature [1]: more stable over time and temperature

— patent publication US20240108559A1, “TOPICAL COMPOSITIONS CONTAINING SYNTHETIC ESTERS OF SINAPINIC ACID AND METHODS FOR TREATING KERATIN SURFACES” (ELC MANAGEMENT LLC, priority 2017, published 2024)
